In ChEMBL document CHEMBL5131409, “Synthesis and characterization of chiral 6-azaspiro[2.5]octanes as potent and selective antagonists of the M4 muscarinic acetylcholine receptor” (Bioorg Med Chem Lett, 2022):

Legend:
[1] = biological target: T1, Muscarinic acetylcholine receptor M4 (Homo sapiens, UniProt P08173); assay: Inhibition of human muscarinic acetylcholine M4 receptor expressed in CHO cells co-expressing Gqi5 in the presence of acetylcholine at EC80 concentration by calcium mobilization assay; type: functional, cell-based
T1 sequence (P08173 whole entry): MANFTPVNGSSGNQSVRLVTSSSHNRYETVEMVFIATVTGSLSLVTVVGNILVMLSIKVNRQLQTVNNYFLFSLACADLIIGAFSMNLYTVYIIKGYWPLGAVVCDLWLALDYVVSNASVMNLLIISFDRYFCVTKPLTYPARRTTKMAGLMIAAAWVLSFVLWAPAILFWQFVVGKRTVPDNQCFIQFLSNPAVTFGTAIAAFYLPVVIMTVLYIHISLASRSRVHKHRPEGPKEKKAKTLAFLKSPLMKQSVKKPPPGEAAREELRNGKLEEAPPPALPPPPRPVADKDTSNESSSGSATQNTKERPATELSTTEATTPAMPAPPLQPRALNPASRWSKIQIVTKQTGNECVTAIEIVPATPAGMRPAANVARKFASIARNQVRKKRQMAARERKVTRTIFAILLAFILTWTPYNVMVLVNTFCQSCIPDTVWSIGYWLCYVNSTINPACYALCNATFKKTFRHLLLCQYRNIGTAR

[2] = biological target: T2, Muscarinic acetylcholine receptor M4 (Homo sapiens) (UniProt P08173); assay: Antagonist activity at human muscarinic acetylcholine M4 receptor expressed in CHO cells co-expressing Gqi5 assessed as minimal acetylcholine response by calcium mobilization assay relative to control; type: functional, cell-based; set-up: scale not given: the % may be the effect or the level left; conditions: filed as antagonist
T2 sequence (whole entry): T1 sequence (P08173 whole entry)

[3] = biological target: T3, Muscarinic acetylcholine receptor M4 (Rattus norvegicus, UniProt P08485); assay: Inhibition of rat muscarinic acetylcholine M4 receptor expressed in CHO cells co-expressing Gqi5 in the presence of acetylcholine at EC80 concentration by calcium mobilization assay; type: functional, cell-based
T3 sequence (P08485 whole entry): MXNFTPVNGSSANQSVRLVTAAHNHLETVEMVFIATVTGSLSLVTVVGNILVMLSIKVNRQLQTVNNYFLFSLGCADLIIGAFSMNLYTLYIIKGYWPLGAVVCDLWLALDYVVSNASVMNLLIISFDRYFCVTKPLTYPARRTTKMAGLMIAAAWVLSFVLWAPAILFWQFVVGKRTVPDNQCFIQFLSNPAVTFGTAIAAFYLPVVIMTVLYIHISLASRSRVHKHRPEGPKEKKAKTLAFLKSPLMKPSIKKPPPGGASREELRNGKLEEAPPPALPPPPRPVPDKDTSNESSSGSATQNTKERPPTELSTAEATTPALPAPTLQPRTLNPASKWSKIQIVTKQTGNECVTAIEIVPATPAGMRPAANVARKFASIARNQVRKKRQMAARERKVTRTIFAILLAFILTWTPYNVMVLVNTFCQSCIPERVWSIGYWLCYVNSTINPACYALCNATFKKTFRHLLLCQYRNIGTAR

[4] = biological target: T4, Muscarinic acetylcholine receptor M4 (Rattus norvegicus) (UniProt P08485); assay: Antagonist activity at rat muscarinic acetylcholine M4 receptor expressed in CHO cells co-expressing Gqi5 assessed as minimal acetylcholine response by calcium mobilization assay relative to control; type: functional, cell-based; set-up: scale not given: the % may be the effect or the level left; conditions: filed as antagonist
T4 sequence (whole entry): T3 sequence (P08485 whole entry)

[5] = biological target: T5, Muscarinic acetylcholine receptor M2 (Homo sapiens, UniProt P08172); assay: Inhibition of human muscarinic acetylcholine M2 receptor expressed in CHO cells co-expressing Gqi5 in the presence of acetylcholine at EC80 concentration by calcium mobilization assay; type: functional, cell-based
T5 sequence (P08172 whole entry): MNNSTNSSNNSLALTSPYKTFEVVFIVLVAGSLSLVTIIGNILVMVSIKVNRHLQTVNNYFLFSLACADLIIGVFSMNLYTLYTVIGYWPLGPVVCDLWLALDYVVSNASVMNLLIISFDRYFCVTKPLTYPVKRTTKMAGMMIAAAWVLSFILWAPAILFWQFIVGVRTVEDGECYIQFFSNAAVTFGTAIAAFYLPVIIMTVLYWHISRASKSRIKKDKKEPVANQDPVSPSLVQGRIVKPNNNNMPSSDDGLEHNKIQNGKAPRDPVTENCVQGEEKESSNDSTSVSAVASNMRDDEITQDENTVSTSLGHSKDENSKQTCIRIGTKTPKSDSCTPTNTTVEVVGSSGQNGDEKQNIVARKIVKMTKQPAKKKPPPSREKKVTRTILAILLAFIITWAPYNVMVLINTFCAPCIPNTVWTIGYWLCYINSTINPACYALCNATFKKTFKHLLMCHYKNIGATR

[6] = Selectivity ratio of IC50 for inhibition of human muscarinic acetylcholine M2 receptor to IC50 for inhibition of human muscarinic acetylcholine M4 receptor expressed in CHO cells co-expressing Gqi5 in the presence of acetylcholine at EC80 concentration by calcium mobilization assay; type: cell-based
Cytochrome P450 1A2 = biological target: T6, Cytochrome P450 1A2 (Homo sapiens, UniProt P05177); assay: Inhibition of CYP1A2 in human liver microsomes using cocktail of isoform-specific probe substrate; type: ADME, Microsome
T6 sequence (P05177 whole entry): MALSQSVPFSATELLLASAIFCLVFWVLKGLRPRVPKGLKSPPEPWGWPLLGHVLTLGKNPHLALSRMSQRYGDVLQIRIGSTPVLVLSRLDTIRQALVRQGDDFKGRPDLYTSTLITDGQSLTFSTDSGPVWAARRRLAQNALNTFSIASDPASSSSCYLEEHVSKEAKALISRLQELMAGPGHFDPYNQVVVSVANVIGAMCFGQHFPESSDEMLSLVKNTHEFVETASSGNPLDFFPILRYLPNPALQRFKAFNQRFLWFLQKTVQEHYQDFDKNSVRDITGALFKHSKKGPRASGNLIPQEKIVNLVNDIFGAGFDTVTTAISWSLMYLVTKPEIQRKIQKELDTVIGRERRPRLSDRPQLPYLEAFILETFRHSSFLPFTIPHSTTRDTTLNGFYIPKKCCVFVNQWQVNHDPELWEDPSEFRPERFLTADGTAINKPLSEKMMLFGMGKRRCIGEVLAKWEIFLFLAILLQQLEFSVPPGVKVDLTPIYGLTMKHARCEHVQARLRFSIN

Cytochrome P450 2C9 = Cytochrome P450 2C9 (Homo sapiens, UniProt P11712); assay: Inhibition of CYP2C9 in human liver microsomes using cocktail of isoform-specific probe substrate; type: ADME, Microsome
Cytochrome P450 2D6 = Cytochrome P450 2D6 (Homo sapiens, UniProt P10635); assay: Inhibition of CYP2D6 in human liver microsomes using cocktail of isoform-specific probe substrate; type: ADME, Microsome
Cytochrome P450 3A4 = Cytochrome P450 3A4 (Homo sapiens, UniProt P08684); assay: Inhibition of CYP3A4 in human liver microsomes using cocktail of isoform-specific probe substrate; type: ADME, Microsome
[7] = Intrinsic clearance in human liver microsomes; type: ADME, Microsome; conditions: read-out: CLH
hERG (KCNH2) = hERG (KCNH2) (Homo sapiens, UniProt Q12809); assay: Inhibition of hERG at 10 uM by patch clamp method relative to control; type: toxicity
Sequence of hERG (KCNH2) (Q12809 whole entry): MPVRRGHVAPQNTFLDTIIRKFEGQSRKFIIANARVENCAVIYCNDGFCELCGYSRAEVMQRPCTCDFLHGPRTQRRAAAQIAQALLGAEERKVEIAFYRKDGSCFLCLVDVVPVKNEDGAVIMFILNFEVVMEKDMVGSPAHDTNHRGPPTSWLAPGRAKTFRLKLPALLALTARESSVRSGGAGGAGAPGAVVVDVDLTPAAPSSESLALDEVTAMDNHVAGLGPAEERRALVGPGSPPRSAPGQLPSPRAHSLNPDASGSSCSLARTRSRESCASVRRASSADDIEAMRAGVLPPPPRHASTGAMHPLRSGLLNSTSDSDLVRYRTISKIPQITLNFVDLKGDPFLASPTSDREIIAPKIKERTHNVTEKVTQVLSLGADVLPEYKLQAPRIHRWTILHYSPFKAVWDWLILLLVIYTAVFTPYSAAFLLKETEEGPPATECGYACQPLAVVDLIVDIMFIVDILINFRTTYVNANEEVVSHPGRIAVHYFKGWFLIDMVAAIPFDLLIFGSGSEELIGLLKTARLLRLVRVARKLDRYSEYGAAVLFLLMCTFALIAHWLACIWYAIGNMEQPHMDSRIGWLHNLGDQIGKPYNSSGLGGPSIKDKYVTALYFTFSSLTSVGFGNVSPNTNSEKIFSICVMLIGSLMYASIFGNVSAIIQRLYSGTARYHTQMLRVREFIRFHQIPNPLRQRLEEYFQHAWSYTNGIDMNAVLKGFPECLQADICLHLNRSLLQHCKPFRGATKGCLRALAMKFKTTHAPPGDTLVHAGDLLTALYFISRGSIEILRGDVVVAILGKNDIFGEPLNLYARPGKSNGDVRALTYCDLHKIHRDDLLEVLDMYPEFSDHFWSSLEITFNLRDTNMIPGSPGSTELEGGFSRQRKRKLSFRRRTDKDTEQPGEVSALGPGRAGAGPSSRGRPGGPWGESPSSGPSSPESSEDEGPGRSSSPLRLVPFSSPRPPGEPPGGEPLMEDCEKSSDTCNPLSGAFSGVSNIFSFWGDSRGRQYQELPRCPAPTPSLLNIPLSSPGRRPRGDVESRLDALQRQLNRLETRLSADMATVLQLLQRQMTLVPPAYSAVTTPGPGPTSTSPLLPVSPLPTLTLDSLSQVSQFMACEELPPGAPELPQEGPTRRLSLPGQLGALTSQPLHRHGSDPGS

Sequence of Cytochrome P450 2D6 (P10635 whole entry, canonical isoform): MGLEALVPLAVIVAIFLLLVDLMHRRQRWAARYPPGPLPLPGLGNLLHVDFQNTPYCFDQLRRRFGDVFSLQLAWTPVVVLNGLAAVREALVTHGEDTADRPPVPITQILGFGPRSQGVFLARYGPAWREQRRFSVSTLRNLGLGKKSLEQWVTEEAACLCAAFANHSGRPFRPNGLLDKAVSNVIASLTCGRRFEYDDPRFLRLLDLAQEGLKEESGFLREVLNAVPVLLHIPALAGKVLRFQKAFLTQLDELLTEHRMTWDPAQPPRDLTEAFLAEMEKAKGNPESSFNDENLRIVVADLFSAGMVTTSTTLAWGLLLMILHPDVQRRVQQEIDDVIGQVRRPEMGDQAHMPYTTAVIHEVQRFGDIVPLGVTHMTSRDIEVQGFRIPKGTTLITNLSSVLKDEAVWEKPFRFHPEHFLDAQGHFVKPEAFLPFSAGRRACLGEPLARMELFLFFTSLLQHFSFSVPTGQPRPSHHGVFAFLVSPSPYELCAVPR
Sequence of Cytochrome P450 2C9 (P11712 whole entry, canonical isoform): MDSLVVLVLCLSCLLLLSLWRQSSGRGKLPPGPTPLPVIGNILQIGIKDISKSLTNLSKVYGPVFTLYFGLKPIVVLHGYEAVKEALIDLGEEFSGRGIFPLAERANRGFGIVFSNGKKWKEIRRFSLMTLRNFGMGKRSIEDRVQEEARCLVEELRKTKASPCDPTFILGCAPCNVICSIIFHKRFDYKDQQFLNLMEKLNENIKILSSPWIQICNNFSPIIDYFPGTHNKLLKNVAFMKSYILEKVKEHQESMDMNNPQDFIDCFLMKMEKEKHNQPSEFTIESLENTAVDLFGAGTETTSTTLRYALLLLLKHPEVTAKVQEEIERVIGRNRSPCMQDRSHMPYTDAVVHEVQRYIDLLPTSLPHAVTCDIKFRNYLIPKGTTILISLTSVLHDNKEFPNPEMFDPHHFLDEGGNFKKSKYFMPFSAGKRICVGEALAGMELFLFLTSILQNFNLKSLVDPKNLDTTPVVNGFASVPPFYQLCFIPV
Sequence of Cytochrome P450 3A4 (P08684 whole entry, canonical isoform): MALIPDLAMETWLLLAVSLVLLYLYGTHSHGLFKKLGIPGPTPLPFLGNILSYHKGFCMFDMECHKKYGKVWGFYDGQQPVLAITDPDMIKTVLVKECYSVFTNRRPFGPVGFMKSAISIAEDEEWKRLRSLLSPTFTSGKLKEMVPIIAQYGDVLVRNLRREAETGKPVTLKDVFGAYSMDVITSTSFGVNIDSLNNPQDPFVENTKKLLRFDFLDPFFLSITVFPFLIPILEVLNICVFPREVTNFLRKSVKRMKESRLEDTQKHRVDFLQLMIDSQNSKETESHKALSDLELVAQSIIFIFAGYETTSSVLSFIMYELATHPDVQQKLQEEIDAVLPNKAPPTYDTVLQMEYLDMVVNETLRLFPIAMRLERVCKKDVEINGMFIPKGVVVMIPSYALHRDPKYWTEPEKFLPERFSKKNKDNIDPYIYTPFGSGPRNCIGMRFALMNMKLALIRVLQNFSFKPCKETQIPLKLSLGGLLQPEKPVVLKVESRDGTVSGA

Compound: Fc1cccc(-c2ccc(NC[C@@H]3CC34CCN(CC3CCOCC3)CC4)nn2)c1
- IC50 [1]: 54 nM
- Activity [2]: 4.2%

Compound: Fc1ccc(Cl)c(-c2ccc(NC[C@@H]3CC34CCN(CC3CCCCC3)CC4)nn2)c1
- IC50 [1]: 12 nM
- Activity [2]: 2.6%
- IC50 [3]: 81 nM
- Activity [4]: 4.3%

Compound: Fc1ccc(-c2ccc(NC[C@@H]3CC34CCN(CC3CCOCC3)CC4)nn2)cc1
- IC50 [1]: 280 nM
- Activity [2]: 4.1%

Compound: Fc1ccc(Cl)c(-c2ccc(NC[C@H]3CC34CCN(CC3CCCCC3)CC4)nn2)c1
- IC50 [1]: 28 nM
- Activity [2]: 3.7%
- IC50 [3]: 530 nM
- Activity [4]: 4.4%

Compound: Fc1ccc(Cl)c(-c2ccc(NCC3CC4(CCN(CC5CCOCC5)CC4)C3)nn2)c1
- Activity [2]: 4.7%

Compound: Cn1cc2cc(-c3ccc(NC[C@@H]4CC45CCN(CC4CCOCC4)CC5)nn3)ccc2n1
- IC50 [1]: 130 nM
- Activity [2]: 3.6%
- IC50 [5]: 6200 nM
- Ratio IC50 [6]: 50
- IC50 (Cytochrome P450 1A2): > 30 µM
- IC50 (Cytochrome P450 2C9): > 30 µM
- IC50 (Cytochrome P450 2D6): 19900 nM
- IC50 (Cytochrome P450 3A4): > 30 µM
- predicted hepatic clearance [7]: 5.9 mL/min/kg

Compound: c1ccc(-c2ccc(NC[C@@H]3CC34CCN(CC3CCOCC3)CC4)nn2)cc1
- IC50 [1]: 120 nM
- Activity [2]: 3.5%
- IC50 [5]: > 10000 nM
- Ratio IC50 [6]: > 80
- IC50 (Cytochrome P450 1A2): > 30 µM
- IC50 (Cytochrome P450 2C9): > 30 µM
- IC50 (Cytochrome P450 2D6): 2500 nM
- IC50 (Cytochrome P450 3A4): > 30 µM
- predicted hepatic clearance [7]: 8 mL/min/kg

Compound: Fc1ccc(F)c(-c2ccc(NC[C@@H]3CC34CCN(CC3CCOCC3)CC4)nn2)c1
- IC50 [1]: 52 nM
- Activity [2]: 3.5%
- IC50 [5]: 2600 nM
- Ratio IC50 [6]: 60
- IC50 (Cytochrome P450 1A2): > 30 µM
- IC50 (Cytochrome P450 2C9): > 30 µM
- IC50 (Cytochrome P450 2D6): 1900 nM
- IC50 (Cytochrome P450 3A4): 17 µM
- predicted hepatic clearance [7]: 10 mL/min/kg

Compound: [2H]C([2H])(C1CCOCC1)N1CCC2(CC1)C[C@H]2CNc1ccc(-c2cc(F)cc(F)c2F)nn1
- IC50 [1]: 42 nM
- IC50 [5]: 3000 nM
- IC50 (Cytochrome P450 1A2): > 30 µM
- IC50 (Cytochrome P450 2C9): > 30 µM
- IC50 (Cytochrome P450 2D6): > 30000 nM
- IC50 (Cytochrome P450 3A4): 27.6 µM
- predicted hepatic clearance [7]: 11 mL/min/kg
- inhibition at 10 µM (hERG (KCNH2)): 98%

Compound: Fc1ccc(Cl)c(-c2ccc(NC3CC4(C3)CN(CC3CCOCC3)C4)nn2)c1
- IC50 [1]: 2900 nM
- Activity [2]: 7.8%

Compound: Fc1cc(F)c(F)c(-c2ccc(NC[C@@H]3CC34CCN(CC3CCOCC3)CC4)nn2)c1
- IC50 [1]: 33 nM
- Activity [2]: 3%
- Activity ([2]; tested as the 2H-labelled form): 3.3%
- IC50 [5]: 1800 nM
- Ratio IC50 [6]: 55
- Ratio IC50 ([6]; tested as the 2H-labelled form): 70
- IC50 (Cytochrome P450 1A2): > 30 µM
- IC50 (Cytochrome P450 2C9): > 30 µM
- IC50 (Cytochrome P450 2D6): 550 nM
- IC50 (Cytochrome P450 3A4): > 30 µM
- predicted hepatic clearance [7]: 8.4 mL/min/kg
- inhibition at 10 µM (hERG (KCNH2)): 99%

Compound: Fc1ccc(Cl)c(-c2ccc(NC[C@@H]3CC34CCN(CC3CCOCC3)CC4)nn2)c1
- IC50 [1]: 1.8 nM
- Activity [2]: 4.5%
- IC50 [5]: 1600 nM
- Ratio IC50 [6]: 900
- IC50 (Cytochrome P450 1A2): > 30 µM
- IC50 (Cytochrome P450 2C9): > 30 µM
- IC50 (Cytochrome P450 2D6): 5700 nM
- IC50 (Cytochrome P450 3A4): > 30 µM
- predicted hepatic clearance [7]: 15 mL/min/kg

Compound: Fc1ccc(Cl)c(-c2ccc(NCC3CC34CCN(CC3CCCCC3)CC4)nn2)c1 (stereo not given)
- IC50 [1]: 18 nM

Compound: Fc1ccc(Cl)c(-c2ccc(NC3CC34CCN(CC3CCOCC3)CC4)nn2)c1 (racemic)
- IC50 [1]: > 10000 nM

Compound: Fc1ccccc1-c1ccc(NC[C@@H]2CC23CCN(CC2CCOCC2)CC3)nn1
- IC50 [1]: 72 nM
- Activity [2]: 4.3%
